Our source for the EC50 values is patent US20220409593A1 (ARKUDA THERAPEUTICS, priority 2019, published 2022).

Broadly, the EC50 is the concentration at which the effect is half-maximal. Read a low EC50 as higher potency in that assay.

Where only a bound is given, the exact number is not on record here.

The first assay has as its system secreted mouse PGRN. Put plainly: progranulin induction cellular assay (PGRN assay, ELISA-based readout). As to conditions: Mus musculus, progranulin secreted into cell culture medium, cells named in method: mouse primary microglia, primary cortical neurons, BV-2. As to the method: Cellular Assays: To measure the efficacy of compounds, a progranulin induction cellular assay in mouse primary microglia (pMG), primary cortical neurons, and BV-2 cell lines is used. BV-2 cells are split the day before plating into a 96well plate format at approximately 80%. Cells should be plated the day before and allowed for 1 hour attachment period and for 16 hour incubation. Levels of progranulin secreted into the cell culture medium or retained in the cell lysate can be quantified using an ELISA-based readout and measurement of secreted mouse PGRN in the medium was assessed by the methodology published by Ghidoni et al. 2012. Standard ELISA kits to measure PGRN are available from vendors such as Adipogen, R&D, and Biovendor.
Table D below presents the results of a PGRN assay as described above.
As for `Fc1ccc([C@H]2c3ccccc3CCN2C2=NO[C@@]3(C2)CN2CCC3CC2)cc1` [Compound 3028, 2((S)-1-(4-fluorophenyl)-3,4-dihydroisoquinolin-2(1H)-yl)-4-4-azaspiro[bicyclo[2.2.2]octane-2,5oxazole]], the concentration for a half-maximal effect (EC50) is above 3160 nM. Consider `N[C@@H]1CC[C@@]2(COC(N3CCc4ccccc4[C@@H]3c3ccc(F)cc3)=N2)C1` [Compound 3082, (5S,7R)-2-((S)-1-(4-fluorophenyl)-3,4-dihydroisoquinolin-2(1H)-yl)-3-oxa-1-azaspiro[4.4]non-1-en-7-amine], for which the midpoint of the response, the EC50, lay at 160 nM.

With `Fc1ccc([C@H]2c3ccccc3CCN2C2=NCC([C@H]3CCNC3)O2)cc1` (single isomer, unassigned) [Compound 3064], a half-maximal response (EC50) required 84.7 nM. Compared with the last compound, the EC50 is about 1.9-fold lower. Same read-out and setting: next, `CN1CCC[C@@]2(CN=C(N3CCc4ccccc4[C@H]3c3cccc(F)c3F)O2)C1` (stereo in doubt) [Compound 3044]: 5000 nM; `Fc1ccc([C@H]2c3ccccc3CCN2C2=NC[C@@H]([C@@H]3CCCNC3)O2)cc1` (single isomer, unassigned) [Compound 3149]: 481 nM; `Fc1cccc([C@@H]2c3ccccc3CCN2C2=NC[C@@]3(CN4CCC3CC4)O2)c1F` (single isomer, unassigned) [Compound 3018]: above 10000 nM.

`Fc1ccc([C@H]2c3ccccc3CCN2C2=NC[C@H]([C@@H]3CCNC3)O2)cc1` (single isomer, unassigned) [Compound 3063] gave a half-maximal effective concentration (EC50) of 208 nM. On to `Fc1cc(F)cc([C@H]2c3ccccc3CCN2C2=NC[C@]3(CN4CCC3CC4)O2)c1` (stereo in doubt) [Compound 3037], for which the response was half-maximal at 1000 nM (EC50). `CN1CCCC2(COC(N3CCc4ccccc4[C@@H]3c3ccc(F)cc3)=N2)C1` (some centres unmarked) [Compound 3055] showed an EC50 of 1770 nM. This EC50 lies about 1.8-fold higher than the previous one. On the same count and under the same terms, next, `Fc1ccc([C@H]2c3ccccc3CCN2C2=N[C@@H]([C@H]3CCNC3)CO2)cc1` (single isomer, unassigned) [Compound 3073]: 66.9 nM; `O[C@H]1CNC[C@]12CN=C(N1CCc3ccccc3[C@@H]1c1ccc(F)cc1)O2` [Compound 3177, (5S,9S)-2-((S)-1-(4-fluorophenyl)-3,4-dihydroisoquinolin-2(1H)-yl)-1-oxa-3,7-diazaspiro[4.4]non-2-en-9-ol]: 181 nM; `Fc1ccc([C@H]2c3ccccc3CCN2C2=NC[C@H](C3(F)CNC3)O2)cc1` (single isomer, unassigned) [Compound 3155]: 192 nM. Same read-out and setting: next, `Fc1ccc([C@H]2c3ccccc3CCN2C2=N[C@H](C3(F)CNC3)CO2)cc1` (single isomer, unassigned) [Compound 3157]: 77.7 nM; `CN1CCC[C@]2(CN=C(N3CCc4ccccc4[C@H]3c3cc(F)cc(F)c3)O2)C1` (single isomer, unassigned) [Compound 3012]: above 10000 nM. Same read-out and setting: the same measure for `CN1CCC[C@@]2(CN=C(N3CCc4ccccc4[C@@H]3c3cccc(F)c3)O2)C1` (single isomer, unassigned) [Compound 3007]: 370 nM.

In the case of `CN(C)[C@H]1C[C@@]2(CN=C(N3CCc4ccccc4[C@@H]3c3ccc(F)cc3)O2)C1` (single isomer, unassigned) [Compound 3159], the EC50 was found to be 209 nM. Still for that read-out and setting: next, `Fc1ccc([C@H]2c3ccccc3CCN2C2=NC[C@]3(CCNC3)O2)cc1` (single isomer, unassigned) [Compound 3050]: 15 nM. Turning to `c1ccc([C@H]2c3ccccc3CCN2C2=NC[C@@]3(CN4CCC3CC4)O2)cc1` (single isomer, unassigned) [Compound 3041], the EC50 stood at 1720 nM. The same measure, in the same setting: the same measure for `Fc1ccc([C@H]2c3ccccc3CCN2C2=NC[C@@]3(CN4CCC3CC4)O2)cc1` (single isomer, unassigned) [Compound 3001]: 100 nM.

The assay is the same for the next values; noted with them: progranulin secreted into cell culture medium, cells named in method: mouse primary microglia, primary cortical neurons, BV-2.
With `Fc1cc(F)cc([C@H]2c3ccccc3CCN2C2=NC[C@]3(CN4CCC3CC4)O2)c1` (stereo in doubt) [Compound 3039], the EC50 was 1050 nM.
